pIC50: −log10 of the molar value. Several values for one entry are separate records, joined by “and”; a condition that tells them apart may be missing. Identical values can stand only once. Counter-ions that a name gives are not always drawn.
What was measured:
[1] = target: Cdc7/Dbf4 (Homo sapiens, UniProt O00311); assay: Inhibition assay of Cdc7/Dbf4 activity (Dowex resin capture, MCM2 substrate); assay type: biochemical; conditions: Cdc7/Dbf4, MCM2 substrate 6 μM, ATP 2 μM
Procedure: The inhibiting activity of putative Cdc7 inhibitors and the potency of selected compounds is determined through a method of assay based on the use of Dowex resin capture technology. The assay consists of the transfer of radioactivity labeled phosphate moiety by the kinase to an acceptor substrate. The resulting 33P-labeled product is separated from unreacted tracer, transferred into a scintillation cocktail and light emitted is measured in a scintillation counter.
The inhibition assay of Cdc7/Dbf4 activity is performed according to the following protocol. The MCM2 substrate is trans-phosphorylated by the Cdc7/Dbf4 complex in the presence of ATP traced with γ^33-ATP. The reaction is stopped by addition of Dowex resin in the presence of formic acid. Dowex resin particles capture unreacted γ^33-ATP and drag it to the bottom of the well while ^33P phosphorylated MCM2 substrate remains in solution. The supernatant is collected, transferred into Optiplate plates and the extent of substrate phosphorylation is evaluated by β counting.
The inhibition assay of Cdc7/Dbf4 activity was performed in 96 wells plate according to the following protocol.
The solvent for test compounds contained 3% DMSO. (final concentration 1%) • 10 μl substrate MCM2 (6 μM final concentration), a mixture of cold ATP (2 μM final concentration) and radioactive ATP (1/5000 molar ratio with cold ATP). • 10 μl enzyme (Cdc7/Dbf4, 2 nM final concentration) that started the reaction. The buffer of the reaction consisted in 50 mM HEPES pH 7.9 containing 15 mM MgCl2, 2 mM DTT, 3 μM NaVO3, 2 mM glycerophosphate and 0.2 mg/ml BSA.
After incubation for 60 minutes at room temperature, the reaction was stopped by adding to each well 150 μl of Dowex resin in the presence of 150 mM formic acid. After another 60 min incubation, 50 μL of suspension were withdrawn and transferred into 96-well OPTIPLATEs containing 150 μl of MicroScint 40 (Packard); after 5-10 minutes shaking the plates were read for 1 min in a Packard TOP-Count radioactivity reader.
Experimental data were analyzed by the computer program Assay Explorer using the four parameter logistic equation: y=bottom+(top−bottom)/(1+10^((log IC50−x)*slope)) where x is the logarithm of the inhibitor concentration, y is the response; y starts at bottom and goes to top with a sigmoid shape.

[2] = target: cdk2/Cyclin A (Homo sapiens, UniProt P24941); assay: Inhibition assay of cdk2/Cyclin A activity (SPA); assay type: biochemical; conditions: Cyclin A/CDK2 complex, histone H1 substrate, 10 μM ATP
Procedure: The inhibiting activity of putative cdk/cyclin inhibitors and the potency of selected compounds may be determined through a method of assay based on the use of the SPA technology (Amersham Pharmacia Biotech).
The assay consists of the transfer of radioactivity labelled phosphate moiety by the kinase to a biotinylated substrate. The resulting 33P-labelled biotinylated product is allowed to bind to streptavidin-coated SPA beads (biotin capacity 130 pmol/mg), and light emitted was measured in a scintillation counter.
Kinase reaction: 4 μM in house biotinylated histone H1 (Sigma #H-5505) substrate, 10 μM ATP (0.1 microCi P^33γ-ATP), 1.1 nM Cyclin A/CDK2 complex, inhibitor in a final volume of 30 μl buffer (TRIS HCl 10 mM pH 7.5, MgCl2 10 mM, DTT 7.5 mM+0.2 mg/ml BSA) were added to each well of a 96 U bottom. After incubation for 60 min at room temperature, the reaction was stopped by addition of 100 μl PBS buffer containing 32 mM EDTA, 500 μM cold ATP, 0.1% Triton X100 and 10 mg/ml streptavidin coated SPA beads. After 20 min incubation, 110 μL of suspension were withdrawn and transferred into 96-well OPTIPLATEs containing 100 μl of 5M CsCl. After 4 hours, the plates were read for 2 min in a Packard TOP-Count radioactivity reader.
IC50 determination: inhibitors were tested at different concentrations ranging from 0.0015 to 10 μM. […]

Cdc7/Dbf4, sequence (O00311 whole entry): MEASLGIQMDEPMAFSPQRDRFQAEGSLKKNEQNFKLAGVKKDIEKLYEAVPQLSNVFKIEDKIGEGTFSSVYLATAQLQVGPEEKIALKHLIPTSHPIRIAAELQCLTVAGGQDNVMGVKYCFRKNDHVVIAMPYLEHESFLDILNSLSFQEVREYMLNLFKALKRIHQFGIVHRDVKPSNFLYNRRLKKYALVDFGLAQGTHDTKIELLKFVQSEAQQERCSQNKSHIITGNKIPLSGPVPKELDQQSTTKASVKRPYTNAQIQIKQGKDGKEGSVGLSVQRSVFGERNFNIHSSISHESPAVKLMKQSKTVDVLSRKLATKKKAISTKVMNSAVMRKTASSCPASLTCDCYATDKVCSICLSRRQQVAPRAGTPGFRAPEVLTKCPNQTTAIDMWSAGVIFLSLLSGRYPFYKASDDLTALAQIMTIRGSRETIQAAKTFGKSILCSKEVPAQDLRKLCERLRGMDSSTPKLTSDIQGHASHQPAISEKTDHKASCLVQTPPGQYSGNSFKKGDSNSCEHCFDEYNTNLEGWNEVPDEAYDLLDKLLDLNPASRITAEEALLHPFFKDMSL
Cdc7/Dbf4, sequence (Q9UBU7 whole entry partner): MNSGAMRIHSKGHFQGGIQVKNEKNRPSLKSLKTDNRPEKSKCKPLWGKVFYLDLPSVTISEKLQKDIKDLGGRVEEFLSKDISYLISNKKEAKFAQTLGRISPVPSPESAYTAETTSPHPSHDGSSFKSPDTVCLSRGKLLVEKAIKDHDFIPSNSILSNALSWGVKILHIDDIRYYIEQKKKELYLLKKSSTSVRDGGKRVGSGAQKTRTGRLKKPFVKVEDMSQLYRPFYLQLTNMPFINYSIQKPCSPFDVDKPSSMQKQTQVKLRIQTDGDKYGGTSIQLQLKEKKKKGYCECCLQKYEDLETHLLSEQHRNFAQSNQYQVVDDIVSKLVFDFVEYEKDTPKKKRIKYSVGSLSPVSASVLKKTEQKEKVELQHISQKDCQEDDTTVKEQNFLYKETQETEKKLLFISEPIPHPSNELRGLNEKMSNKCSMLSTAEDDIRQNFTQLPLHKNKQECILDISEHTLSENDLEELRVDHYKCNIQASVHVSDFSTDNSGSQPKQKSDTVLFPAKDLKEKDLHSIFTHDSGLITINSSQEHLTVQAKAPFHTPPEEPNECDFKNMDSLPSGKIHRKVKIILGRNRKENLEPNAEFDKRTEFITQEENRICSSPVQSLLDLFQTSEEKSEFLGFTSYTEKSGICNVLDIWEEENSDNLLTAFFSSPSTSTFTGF

Row | SMILES | pIC50 [1] | pIC50 [2]
1 | O=C1NCCc2[nH]c(-c3ccnc4[nH]ccc34)cc21 [2-(1H-pyrrolo[2,3-b]pyridin-4-yl)-1,5,6,7-tetrahydro-4H-pyrrolo[3,2-c]pyridin-4-one hydrochloride] | 7.80 | 
2 | C[C@H]1Cc2[nH]c(-c3ccncc3)cc2C(=O)N1 [(6S)-6-methyl-2-pyridin-4-yl-1,5,6,7-tetrahydro-4H-pyrrolo[3,2-c]pyridin-4-one] | 7.85 | 
3 | O=C1NC(C2CC2)Cc2[nH]c(-c3ccncc3)cc21 [(6R,6S)-6-cyclopropyl-2-pyridin-4-yl-1,5,6,7-tetrahydro-4H-pyrrolo[3,2-c]pyridin-4-one] | 8.70 | 
4 | CC1(C)CNC(=O)c2cc(-c3ccncc3)[nH]c21 [7,7-dimethyl-2-pyridin-4-yl-1,5,6,7-tetrahydro-4H-pyrrolo[3,2-c]pyridin-4-one hydrochloride] | 8.52 | 
5 | Cc1c(-c2ccncc2)[nH]c2c1C(=O)NCC2 [3-methyl-2-pyridin-4-yl-1,5,6,7-tetrahydro-4H-pyrrolo[3,2-c]pyridin-4-one hydrochloride] | 8.52 | 
6 | O=C1NCC(Cc2ccccc2)c2[nH]c(-c3ccncc3)cc21 [(7R,7S)-7-benzyl-2-pyridin-4-yl-1,5,6,7-tetrahydro-4H-pyrrolo[3,2-c]pyridin-4-one] | 7.77 | 
7 | O=C1NC(Cc2ccccc2)Cc2[nH]c(-c3ccncc3)cc21 (single isomer, unassigned) [(6R or 6S)-6-benzyl-2-pyridin-4-yl-1,5,6,7-tetrahydro-4H-pyrrolo[3,2-c]pyridin-4-one] | 7.70 and 8.05 | 
8 | CC(C)CC1CNC(=O)c2cc(-c3ccncc3)[nH]c21 [(7R,7S)-7-isobutyl-2-pyridin-4-yl-1,5,6,7-tetrahydro-4H-pyrrolo[3,2-c]pyridin-4-one hydrochloride] | 8.30 | 
9 | O=C1NCCc2[nH]c(-c3ccncc3F)cc21 [2-(3-fluoropyridin-4-yl)-1,5,6,7-tetrahydro-4H-pyrrolo[3,2-c]pyridin-4-one hydrochloride] | 8.10 | 
10 | CC(C)C1Cc2[nH]c(-c3ccncc3)cc2C(=O)N1 [(6R,6S)-6-isopropyl-2-pyridin-4-yl-1,5,6,7-tetrahydro-4H-pyrrolo[3,2-c]pyridin-4-one hydrochloride] | 8.05 | 
11 | CC(C)CC1CNC(=O)c2cc(-c3ccncc3F)[nH]c21 [(7R,7S)-2-(3-fluoropyridin-4-yl)-7-isobutyl-1,5,6,7-tetrahydro-4H-pyrrolo[3,2-c]pyridin-4-one] | 8.40 | 
12 | CCC1(CC)CNC(=O)c2cc(-c3ccncc3)[nH]c21 [7,7-diethyl-2-pyridin-4-yl-1,5,6,7-tetrahydro-4H-pyrrolo[3,2-c]pyridin-4-one hydrochloride] | 8.15 | 
13 | CC(C)C1CNC(=O)c2cc(-c3ccncc3F)[nH]c21 [(7R,7S)-2-(3-fluoropyridin-4-yl)-7-isopropyl-1,5,6,7-tetrahydro-4H-pyrrolo[3,2-c]pyridin-4-one] | 8.52 | 
14 | CC1CNC(=O)c2cc(-c3ccncc3)[nH]c21 (single isomer, unassigned) [(7R or 7S)-7-methyl-2-pyridin-4-yl-1,5,6,7-tetrahydro-4H-pyrrolo[3,2-c]pyridin-4-one] | 8.40 and 8.15 | 
15 | CCC1CNC(=O)c2cc(-c3ccncc3F)[nH]c21 [(7R,7S)-2-(3-fluoropyridin-4-yl)-7-ethyl-1,5,6,7-tetrahydro-4H-pyrrolo[3,2-c]pyridin-4-one] | 9.00 | 
16 | O=C1NC(CCc2ccccc2)Cc2[nH]c(-c3ccncc3)cc21 [(6R,6S)-6-(2-phenylethyl)-2-pyridin-4-yl-1,5,6,7-tetrahydro-4H-pyrrolo[3,2-c]pyridin-4-one hydrochloride] | 7.59 | 
17 | CC(C)C1CNC(=O)c2cc(-c3ccncc3)[nH]c21 [(7R,7S)-7-isopropyl-2-pyridin-4-yl-1,5,6,7-tetrahydro-4H-pyrrolo[3,2-c]pyridin-4-one] | 7.70 | 
18 | CCC(C)C1CNC(=O)c2cc(-c3ccncc3)[nH]c21 [(7R,7S)-7-sec-butyl-2-pyridin-4-yl-1,5,6,7-tetrahydro-4H-pyrrolo[3,2-c]pyridin-4-one] | 8.52 | 
19 | O=C1NC(Cc2ccccc2)Cc2[nH]c(-c3ccncc3)cc21 [(6R,6S)-6-benzyl-2-pyridin-4-yl-1,5,6,7-tetrahydro-4H-pyrrolo[3,2-c]pyridin-4-one] | 7.80 | 
20 | O=C1NCC2(CC2)c2[nH]c(-c3ccncc3)cc21 [2′-pyridin-4-yl-5′,6′-dihydrospiro[cyclopropane-1,7′-pyrrolo[3,2-c]pyridin]-4′(1′H)-one] | 8.70 | 
21 | O=C1NCCc2[nH]c(-c3ccnc(NC4CCCC4)c3)cc21 [2-[2-(cyclopentylamino)pyridin-4-yl]-1,5,6,7-tetrahydro-4H-pyrrolo[3,2-c]pyridin-4-one] |  | 7.40
22 | O=C1NC(C2CCCCC2)Cc2[nH]c(-c3ccncc3)cc21 [(6R,6S)-6-cyclohexyl-2-pyridin-4-yl-1,5,6,7-tetrahydro-4H-pyrrolo[3,2-c]pyridin-4-one] | 8.10 | 
23 | CC1CNC(=O)c2cc(-c3ccncc3)[nH]c21 [(7R,7S)-7-methyl-2-pyridin-4-yl-1,5,6,7-tetrahydro-4H-pyrrolo[3,2-c]pyridin-4-one hydrochloride] | 8.30 | 

Source: patent publication US20050043346A1, “Pyridylpyrrole derivatives active as kinase inhibitors” (Pharmacia Italia S.p.A., priority 2003, published 2005)
